Data published in patent US9738655B2, “Tetrahydroisoquinolines containing substituted azoles as factor XIa inhibitors” (BRISTOL-MYERS SQUIBB COMPANY, priority 2013, dated 2017).
pKi: −log10 of the molar value. Counter-ions that a name gives are not always drawn. Like-named read-outs stand apart in the source and are kept apart here.

How the values were obtained:
[1] = target: purified human Factor XIa (Homo sapiens (Human), UniProt P03951); assay: Factor XIa enzyme inhibition assay (chromogenic substrate S-2366)
[2] = target: purified human plasma kallikrein (Homo sapiens (Human), UniProt P03952); assay: Plasma kallikrein enzyme inhibition assay (chromogenic substrate S-2302); type: biochemical
[3] = measured at 25° C. (no asterisk)
[4] = read-out: Factor XIa Ki, measured at 25° C.

purified human Factor XIa, sequence (P03951 388-625): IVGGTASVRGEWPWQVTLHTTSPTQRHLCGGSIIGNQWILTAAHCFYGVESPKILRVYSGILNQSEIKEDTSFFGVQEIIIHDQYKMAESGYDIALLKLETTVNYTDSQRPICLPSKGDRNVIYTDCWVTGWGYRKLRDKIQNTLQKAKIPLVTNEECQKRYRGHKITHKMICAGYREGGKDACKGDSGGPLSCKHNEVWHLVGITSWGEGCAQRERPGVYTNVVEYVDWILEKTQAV
purified human Factor XIa, sequence (P03951 19-387 partner): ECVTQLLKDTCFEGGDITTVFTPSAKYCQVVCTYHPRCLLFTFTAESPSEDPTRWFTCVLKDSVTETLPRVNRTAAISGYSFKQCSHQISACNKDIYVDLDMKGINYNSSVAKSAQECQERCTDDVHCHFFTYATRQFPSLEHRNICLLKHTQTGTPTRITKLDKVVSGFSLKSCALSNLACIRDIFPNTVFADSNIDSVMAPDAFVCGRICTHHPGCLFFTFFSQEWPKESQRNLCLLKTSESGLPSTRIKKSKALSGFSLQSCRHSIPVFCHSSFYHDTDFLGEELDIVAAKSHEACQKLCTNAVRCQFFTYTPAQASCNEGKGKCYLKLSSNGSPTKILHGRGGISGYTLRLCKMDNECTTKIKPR
purified human plasma kallikrein, sequence (P03952 391-638): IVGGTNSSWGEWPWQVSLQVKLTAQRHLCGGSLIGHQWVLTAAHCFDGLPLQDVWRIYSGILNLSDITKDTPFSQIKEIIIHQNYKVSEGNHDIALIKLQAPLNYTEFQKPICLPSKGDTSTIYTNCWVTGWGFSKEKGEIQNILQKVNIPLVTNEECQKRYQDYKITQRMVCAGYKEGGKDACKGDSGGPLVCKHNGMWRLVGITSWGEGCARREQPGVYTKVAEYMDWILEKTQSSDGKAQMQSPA
purified human plasma kallikrein, sequence (P03952 20-390 partner): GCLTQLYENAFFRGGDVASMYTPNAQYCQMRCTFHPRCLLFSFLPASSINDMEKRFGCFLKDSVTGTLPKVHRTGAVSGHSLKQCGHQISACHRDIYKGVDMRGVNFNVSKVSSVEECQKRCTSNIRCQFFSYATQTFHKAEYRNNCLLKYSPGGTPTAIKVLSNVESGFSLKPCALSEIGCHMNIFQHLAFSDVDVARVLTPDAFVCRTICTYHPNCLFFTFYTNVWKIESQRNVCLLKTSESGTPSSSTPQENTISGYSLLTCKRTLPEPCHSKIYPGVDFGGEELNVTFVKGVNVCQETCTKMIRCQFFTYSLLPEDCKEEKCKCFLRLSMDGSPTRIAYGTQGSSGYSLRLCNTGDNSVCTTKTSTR

pKi [1] | pKi [2, 3] | pKi ([2]; measured at 37° C. (*)) | pKi [1, 4] | Compound
7.88 | 6.75 | – | – | COC1CCN(c2cccc3c2CCN(C(=O)c2cc(-c4c(F)ccc(Cl)c4F)no2)C3C(=O)Nc2ccc(C(=O)O)cc2)CC1 (racemic) [Example 265, 4-(2-(3-(3-chloro-2,6-difluorophenyl)isoxazole-5-carbonyl)-5-(4-methoxypiperidin-1-yl)-1,2,3,4-tetrahydroisoquinoline-1-carboxamido)benzoic acid, TFA salt]
5.85 | – | 6.75 | – | COC1CCN(c2cccc3c2CCN(C(=O)c2cc(-c4cccc(Cl)c4F)no2)C3C(=O)Nc2ccc(C(=O)O)cc2)CC1 (racemic) [Example 268, 4-(2-(3-(3-chloro-2-fluorophenyl)isoxazole-5-carbonyl)-5-(4-methoxypiperidin-1-yl)-1,2,3,4-tetrahydroisoquinoline-1-carboxamido)benzoic acid, TFA salt]
7.48 | 6.69 | – | – | COC1CCN(c2cccc3c2CCN(C(=O)c2cc(-c4cccc(Cl)c4F)ns2)C3C(=O)Nc2ccc(C(=O)O)cc2)CC1 (racemic) [Example 269, 4-(2-(3-(3-chloro-2-fluorophenyl)isothiazole-5-carbonyl)-5-(4-methoxypiperidin-1-yl)-1,2,3,4-tetrahydroisoquinoline-1-carboxamido)benzoic acid, TFA salt]
7.69 | 6.57 | – | – | COC1CCN(c2cccc3c2CCN(C(=O)c2cnc(-c4cccc(Cl)c4F)s2)C3C(=O)Nc2ccc(C(=O)O)cc2)CC1 (racemic) [Example 270, 4-(2-(2-(3-chloro-2-fluorophenyl)thiazole-5-carbonyl)-5-(4-methoxypiperidin-1-yl)-1,2,3,4-tetrahydroisoquinoline-1-carboxamido)benzoic acid, TFA salt]
> 8.30 | 8.12 | – | – | COC1CCN(c2cccc3c2CCN(C(=O)c2cn(-c4cccc(Cl)c4F)cn2)C3C(=O)Nc2ccc(C(=O)O)cc2)CC1 (racemic) [Example 271, 4-(2-(1-(3-chloro-2-fluorophenyl)-1H-imidazole-4-carbonyl)-5-(4-methoxypiperidin-1-yl)-1,2,3,4-tetrahydroisoquinoline-1-carboxamido)benzoic acid, TFA salt]
> 8.30 | 8.31 | – | – | CN1CCN(c2cccc3c2CCN(C(=O)c2cn(-c4cccc(Cl)c4F)nn2)C3C(=O)Nc2ccc(C(=O)O)cc2)CC1=O (racemic) [Example 274, 4-(2-(1-(3-chloro-2-fluorophenyl)-1H-1,2,3-triazole-4-carbonyl)-5-(4-methyl-3-oxopiperazin-1-yl)-1,2,3,4-tetrahydroisoquinoline-1-carboxamido)benzoic acid, TFA salt]
7.97 | 7.93 | – | – | COc1cccc2c1CCN(C(=O)c1cn(-c3cccc(Cl)c3F)nn1)C2C(=O)Nc1ccc(C(=O)O)cc1 (racemic) [Example 275, 4-(2-(1-(3-chloro-2-fluoroplienyl)-1H-1,2,3-triazole-4-carbonyl)-5-methoxy-1,2,3,4-tetrahydroisoquinoline-1-carboxamido)benzoic acid, TFA salt]
> 8.30 | 8.20 | – | – | CN1CCN(c2cccc3c2CCN(C(=O)c2cn(-c4cccc(Cl)c4F)cn2)C3C(=O)Nc2ccc(C(=O)O)cc2)CC1=O (racemic) [Example 284, 4-(2-(1-(3-chloro-2-fluorophenyl)-1H-imidazole-4-carbonyl)-5-(4-methyl-3-oxopiperazin-1-yl)-1,2,3,4-tetrahydroisoquinoline-1-carboxamido)benzoic acid, TFA salt]
> 8.30 | 7.54 | – | – | COC1CCN(c2cccc3c2CCN(C(=O)c2cnn(-c4cccc(Cl)c4F)c2N)C3C(=O)Nc2ccc(C(=O)O)cc2)CC1 (racemic) [Example 309, 4-(2-(5-amino-1-(3-chloro-2-fluorophenyl)-1H-pyrazole-4-carbonyl)-5-(4-methoxypiperidin-1-yl)-1,2,3,4-tetrahydroisoquinoline-1-carboxamido)benzoic acid, 2 TFA salt]
7.09 | 6.21 | – | – | COC1CCN(c2cccc3c2CCN(C(=O)c2coc(-c4cccc(Cl)c4F)n2)C3C(=O)Nc2ccc(C(=O)O)cc2)CC1 (racemic) [Example 310, 4-(2-(2-(3-chloro-2-fluorophenyl)oxazole-4-carbonyl)-5-(4-methoxypiperidin-1-yl)-1,2,3,4-tetrahydroisoquinoline-1-carboxamido)benzoic acid, TFA salt]
7.73 | 6.10 | – | – | COC1CCN(c2cccc3c2CCN(C(=O)c2cc(-c4cccc(Cl)c4)n[nH]2)C3C(=O)Nc2ccc(C(=O)O)cc2)CC1 (racemic) [Example 311, 4-(2-(3-(3-chlorophenyl)-1H-pyrazole-5-carbonyl)-5-(4-methoxypiperidin-1-yl)-1,2,3,4-tetrahydroisoquinoline-1-carboxamido)benzoic acid, TFA salt]
> 8.30 | 7.56 | – | – | COC1CCN(c2cccc3c2CCN(C(=O)c2cn(-c4c(F)ccc(Cl)c4F)cn2)C3C(=O)Nc2ccc(C(=O)O)cc2)CC1 (racemic) [Example 312, 4-(2-(1-(3-chloro-2,6-difluorophenyl)-1H-imidazole-4-carbonyl)-5-(4-methoxypiperidin-1-yl)-1,2,3,4-tetrahydroisoquinoline-1-carboxamido)benzoic acid, TFA salt]
5.32 | – | < 5.22 | – | COC1CCN(c2cccc3c2CCN(C(=O)c2cnn(-c4ccncc4)c2N)C3C(=O)Nc2ccc(C(=O)O)cc2)CC1 (racemic) [Example 313, 4-(2-(5-amino-1-(pyridin-4-yl)-1H-pyrazole-4-carbonyl)-5-(4-methoxypiperidin-1-yl)-1,2,3,4-tetrahydroisoquinoline-1-carboxamido)benzoic acid, TFA salt]
– | 8.86 | – | > 8.30 | CN(C)C1CCN(c2cccc3c2CCN(C(=O)c2cn(-c4cccc(Cl)c4F)nn2)[C@@H]3C(=O)Nc2ccc(C(=O)O)cc2)CC1 (single isomer, unassigned) [Example 49, bis-TFA salt]
– | 6.47 | – | 7.26 | CN(C)C1CCN(c2cccc3c2CCN(C(=O)c2cnn(-c4cccc(Cl)c4F)c2)[C@H]3C(=O)Nc2ccc(C(=O)O)cc2)CC1 (single isomer, unassigned) [Example 51, bis-TFA salt]
– | 8.75 | – | > 8.30 | CN(C)C1CCN(c2cccc3c2CCN(C(=O)c2cnn(-c4cccc(Cl)c4F)c2)[C@@H]3C(=O)Nc2ccc(C(=O)O)cc2)CC1 (single isomer, unassigned) [Example 52, bis-TFA salt]
– | 7.30 | – | 8.05 | CN(C)C1CCN(c2cccc3c2CCN(C(=O)c2cn(-c4cccc(Cl)c4F)cn2)[C@H]3C(=O)Nc2ccc(C(=O)O)cc2)CC1 (single isomer, unassigned) [Example 54, bis-TFA salt]
– | 9.04 | – | > 8.30 | CN(C)C1CCN(c2cccc3c2CCN(C(=O)c2cn(-c4cccc(Cl)c4F)cn2)[C@@H]3C(=O)Nc2ccc(C(=O)O)cc2)CC1 (single isomer, unassigned) [Example 55, bis-TFA salt]
– | 6.56 | – | 7.48 | CN(C)C(=O)C1CCN(c2cccc3c2CCN(C(=O)c2cn(-c4cccc(Cl)c4F)nn2)[C@H]3C(=O)Nc2ccc(C(=O)O)cc2)CC1 (single isomer, unassigned) [Example 57, TFA salt]
